From patent US10765654B2, “Methods and compounds for treating cancer” (University of Vermont and State Agricultural College, priority 2011, dated 2020)

Key:
[1] = system: murine neural stem cells (NSCs); assay: Cell cycle profile by propidium iodide staining and flow cytometry; format: cell-based; details: 0.25% GTA in SCM for 24 hours
Method: Cell cycle profiles were visualized by propidium iodide (PI) staining as previously described (Perez-Martinez & Jaworski (2005) J Neurosci 25:4917-29). OG35, OG33 and mouse neural stem cells were grown in stem cell medium (SCM; DMEM/F12, B27, 20 ng/ml ea bFGF & EGF) while the oligodendrocyte progenitor cell line, Oli-neu (Jung et al. (1995) Eur J Neurosci 7:1245-65) was grown in Sato's medium (DMEM supplemented with 100 μg/ml apotransferrin, 5 μg/ml insulin, 60 nM triiodothyronine, 30 nM sodium selenite, 100 μM putrescine, 1% horse serum, and 25 μg/ml G418). […] after 0.25% (v/v) GTA treatment, cells were trypsinized, recovered by centrifugation, re-suspended (10^6 cells/ml) in a low-salt PI solution ([…] polyethylene glycol PEG 8000, […], 180 U/ml RNase A, 0.1% Triton X-100, and 4 mM sodium citrate), and incubated at 37° C. for 20 minutes. After addition of an equal volume of high-salt PI solution ([…] polyethylene glycol PEG 8000, […], 180 U/ml RNase A, 0.1% Triton X-100, and 400 mM NaCl) and incubation at 4° C. for 1 hour, cell cycle profiles were recorded by flow cytometry (BD LSR 11 Flow Cytometer, BD Biosciences; Franklin Lakes, N.J.).

ASPA in OG33 cells = assay: Western blot of ASPA expression; format: cell-based, human; details: 0.25% GTA
Method: (§1) SDS-PAGE (25 μg protein from whole cell lysates) and western blotting were performed as previously described (Lluri et al. 2008 Exp Cell Res 314:11-24). Cytosol and nuclear fractions were isolated according to standard protocols. Antibodies: rabbit anti-mouse ASPA (2,000×), (Madhavarao et al. 2004 Comp Neurol 472:318-29) rabbit anti-human ASPA (5,000×; GTX1338; GeneTex, Irvine, Calif.), goat anti-human actin (1,000×, sc-1616, Santa Cruz Biotechnology, Santa Cruz, Calif.), rabbit anti-human GAPDH (5,000×, sc-25778, Santa Cruz Biotechnology, Santa Cruz, Calif.), mouse anti-human histone H1 (250×, sc-8030; Santa Cruz Biotechnology, Santa Cruz, Calif.). Species-specific HRP—(3,000×) conjugated secondary antibodies were obtained from Jackson ImmunoResearch (West Grove, Pa.). Immunocomplexes were visualized by enhanced chemiluminescence (PerkinElmer Life Sciences; Boston, Mass.) and densitometry performed using Quantity One software (Bio-Rad; Hercules, Calif.).
(§2) SDS-PAGE (25 μg protein from whole cell lysates) and western blotting were performed as previously described in Example 1.

ASPA in OG35 cells = assay: Western blot of ASPA expression; format: cell-based, human; details: 0.25% GTA
Method: as §1, §2

[2] = acetate supplementation in children with Canavan Disease; cited from earlier work
GBM8 GSCs = assay: Growth dynamics, unbiased trypan blue exclusion based cytometry; format: cell-based, human; details: GTA; GBM8 cells grown in DM
Method: Growth dynamics were assessed using unbiased trypan blue exclusion based cytometry. Cells were plated (at 10,000 cells per well of a 24-well plate) directly in the absence or presence of 0.25% GTA. After 1, 3, and 5 days of treatment, cells were typsinized, collected via centrifugation, and counted according to the manufacturer's instructions (Countess Automated Cell Counter; Invitrogen Life Technologies; Carlsbad, Calif.).
Growth dynamics was determined as described in prior examples herein.

OG35 GSCs = assay: Orthotopic graft in athymic mice, comparison of priming, concurrent and salvage regimens; format: in vivo; details: OG35 GSC engrafted mice; priming with GTA two days prior to TMZ treatment
Method: Cells (2,500 cells in 4 μl) were injected into the right striatum (1 mm anterior, 1.5 mm lateral to bregma, 3.5 mm deep) of adult athymic mice (8-week-old, 25-28 g). GTA (5.8 g/kg plus 10% v/v Ora-Sweet SF® (Paddock Laboratories, Minneapolis, Minn.) was administered intragastrically daily starting on the third post-operative day. TMZ (20 mg/kg) was administered intragastrically in an oral suspension vehicle containing 2.5 mg/ml Povidone K30, 0.013% citric acid, 50% Ora-Plus® (Paddock Laboratories, Minneapolis, Minn.), 50% Ora-Sweet SF® (Paddock Laboratories, Minneapolis, Minn.) on days 5, 7, 9, 11, and 13. Mice receiving the combined GTA/TMZ therapy received the TMZ in the morning (˜7-8 AM) and GTA in the evening (˜6-7 PM).
Orthotopic grafting was performed as described above in Example 6. In addition to the treatments described above, the following treatments were tested: 1) concurrent (GTA and TMZ on days 5, 7, 9, 11, 13, with GTA alone on days 6, 8, 10, 12 and continuous GTA afterwards), and 2) salvage (GTA administered daily after single course of TMZ on days 5, 7, 9, 11, and 13).

With `CC(=O)OCC(COC(C)=O)OC(C)=O` [GTA, glyceryltriacetate] the Cell cycle arrest [1] was “no effect”, the “Expression of novel 26 kDa ASPA species (Western blot)” value (ASPA in OG33 cells) was “induced the expression of a novel 26 kDa species” and the “Expression of the putative 36 kDa ASPA protein (Western blot)” value (ASPA in OG33 cells) was “no effect”. The “ASPA expression (Western blot)” value (ASPA in OG35 cells) was “decreased ASPA expression”, the Adverse effects [2] was “without any adverse effects” and the Growth dynamics (GBM8 GSCs) was “reduced growth dynamics”. The “Survival versus TMZ alone” value (OG35 GSCs) was “increased survival over TMZ alone”.
